Measured values taken from US10071081B2, “Compositions of 1,2,4-oxadiazole benzoic acid compounds and methods for their use” (PTC Therapeutics, Inc., priority 2003, dated 2018).

System: luciferase reporter construct containing a UGA premature termination codon
Assay: cell-based luciferase reporter assay
Parameters: species or system Human; key to Activity: *****: both extremely high potency and extremely high efficacy of protein synthesis; ****: extremely high potency of protein synthesis and very high efficacy; ****: very high potency of protein synthesis and extremely high efficacy; ***: both very high potency and very high efficacy of protein synthesis; **: very high potency of protein synthesis and significant efficacy; **: significant potency of protein synthesis and very high efficacy; *: significant potency and efficacy of protein synthesis
Settings: ranking combining potency and efficacy of protein synthesis; UGA luciferase reporter stably transfected in 293T Human Embryonic Kidney cells
Method: Activity measurements in Table I were performed in a cell-based luciferase reporter assay (as described in Section 4.2) comprising a luciferase reporter construct containing a UGA premature termination codon that was stably transfected in 293T Human Embryonic Kidney cells. A small molecule, 3-[3-(4-Isopropyl-phenyl)-2,5-dioxo-imidazolidin-1-yl]-benzoic acid, known to allow readthrough of premature termination codons was used was used as an internal standard. Activity measurements are based on the qualitative relation between the minimum concentration of compound required to produce a given protein in a cell (potency) and the maximum amount of protein produced by the cell (efficacy). Potency and efficacy activities are ranked as either extremely high, very high or significant. The combination of these activities is used to determine the activity ranking.
Two assays were developed for use in high throughput screens to identify small molecules that promote nonsense suppression. Each assay utilized luciferase because it is a functional reporter gene assay (light is only produced if the protein is functional) and it is extremely sensitive (Light intensity is proportional to luciferase concentration in the nM range). The first assay is a cell-based luciferase reporter assay and the second is a biochemical assay consisting of rabbit reticulocyte lysate and a nonsense-containing luciferase reporter mRNA. In the cell-based assay, a luciferase reporter construct containing a UGA premature termination codon was stably transfected in 293T Human Embryonic Kidney cells. In the biochemical assay, mRNA containing a UGA premature termination codon was used as a reporter in an in vitro translation reaction using rabbit reticulocyte lysate supplemented with tRNA, hemin, creatine kinase, amino acids, KOAc, Mg(OAc)2, and creatine phosphate. […] Synthetic mRNA was prepared in vitro using the T7 promoter and the MegaScript in vitro transcription kit (Ambion).
To determine whether compounds also function in vivo, a stable cell line harboring the UGA nonsense-containing luciferase gene was treated with selected compounds. Cells were grown in standard medium supplemented with 1% penicillin-streptomycin (P/S) and 10% fetal bovine serum (FBS) to 70% confluency and split 1:1 the day before treatment. On the following day, cells were trypsinized and 40,000 cells were added to each well of a 96-well tissue culture dish. Serial dilutions of each compound were prepared to generate a six-point dose response curve spanning 2 logs (30 μM to 0.3 μM). The final concentration of the DMSO solvent remained constant at 1% in each well. Cells treated with 1% DMSO served as the background standard, and cells treated with gentamicin served as a positive control.

| SMILES | Activity |
| --- | --- |
| O=C(O)c1cccc(-c2noc(-c3cccc(Cl)c3)n2)c1 [Compound 01, 3-[5-(3-Chloro-phenyl)-[1,2,4]oxadiazol-3-yl]-benzoic acid] | ***** |
| CCCCCOc1ccc(-c2nc(-c3cccc(C(=O)O)c3)no2)cc1 [Compound 02, 3-[5-(4-Pentyloxy-phenyl)-[1,2,4]oxadiazol-3-yl]-benzoic acid] | *** |
| O=C(O)c1cccc(-c2noc(-c3cccc4ccccc34)n2)c1 [Compound 03, 3-(5-Naphthalen-1-yl-[1,2,4]oxadiazol-3-yl)-benzoic acid] | **** |
| Cc1ccc(-c2nc(-c3cccc(C(=O)O)c3)no2)cc1 [Compound 04, 3-(5-p-Tolyl-[1,2,4]oxadiazol-3-yl)-benzoic acid] | ***** |
| O=C(O)c1cccc(-c2noc(-c3ccc(F)cc3)n2)c1 [Compound 05, 3-[5-(4-Fluoro-phenyl)-[1,2,4]oxadiazol-3-yl]-benzoic acid] | ***** |
| O=C(O)c1cccc(-c2noc(-c3ccc(-c4ccccc4)cc3)n2)c1 [Compound 06, 3-(5-Biphenyl-4-yl-[1,2,4]oxadiazol-3-yl)-benzoic acid] | **** |
| CC(C)Cc1ccc(-c2nc(-c3cccc(C(=O)O)c3)no2)cc1 [Compound 07, 3-[5-(4-Isobutyl-phenyl)-[1,2,4]oxadiazol-3-yl]-benzoic acid] | ** |
| O=C(O)c1cccc(-c2noc(-c3ccccc3)n2)c1 [Compound 08, 3-(5-Phenyl-[1,2,4]oxadiazol-3-yl)-benzoic acid] | ***** |
| O=C(O)c1cccc(-c2noc(C3CCCCC3)n2)c1 [Compound 09, 3-(5-Cyclohexyl-[1,2,4]oxadiazol-3-yl)-benzoic acid] | **** |
| COc1cc(-c2nc(-c3cccc(C(=O)O)c3)no2)cc(OC)c1OC [Compound 10, 3-[5-(3,4,5-Trimethoxy-phenyl)-[1,2,4]oxadiazol-3-yl]-benzoic acid] | *** |
| O=C(O)c1cccc(-c2noc(-c3ccc([N+](=O)[O-])cc3)n2)c1 [Compound 11, 3-[5-(4-Nitro-phenyl)-[1,2,4]oxadiazol-3-yl]-benzoic acid] | **** |
| COc1ccc(-c2nc(-c3cccc(C(=O)O)c3)no2)cc1 [Compound 12, 3-[5-(4-Methoxy-phenyl)-[1,2,4]oxadiazol-3-yl]-benzoic acid] | ***** |
| Cc1ccccc1-c1nc(-c2cccc(C(=O)O)c2)no1 [Compound 13, 3-[5-(o-tolyl)-[1,2,4]oxadiazol-3-yl]-benzoic acid] | ***** |
| O=C(O)c1cccc(-c2noc(-c3ccc4c(c3)OCO4)n2)c1 [Compound 14, 3-(5-Benzo[1,3]dioxol-5-yl-[1,2,4]oxadiazol-3-yl)-benzoic acid] | ***** |
| CC(C)c1nc(-c2cccc(C(=O)O)c2)no1 [Compound 15, 3-(5-Isopropyl-[1,2,4]oxadiazol-3-yl)-benzoic acid] | **** |
| O=C(O)c1cccc(-c2noc(-c3cc(C(F)(F)F)cc(C(F)(F)F)c3)n2)c1 [Compound 16, 3-[5-(3,5-Bis-trifluoromethyl-phenyl)-[1,2,4]oxadiazol-3-yl]-benzoic acid] | **** |
| O=C(O)c1cccc(-c2noc(-c3ccc(C(F)(F)F)cc3)n2)c1 [Compound 17, 3-[5-(4-Trifluoromethyl-phenyl)-[1,2,4]oxadiazol-3-yl]-benzoic acid] | ***** |
| CN(C)c1ccc(-c2nc(-c3cccc(C(=O)O)c3)no2)cc1 [Compound 18, 3-[5-(4-Dimethylamino-phenyl)-[1,2,4]oxadiazol-3-yl]-benzoic acid] | **** |
| COc1ccccc1-c1nc(-c2cccc(C(=O)O)c2)no1 [Compound 19, 3-[5-(2-Methoxy-phenyl)-[1,2,4]oxadiazol-3-yl]-benzoic acid] | *** |
| COc1cccc(-c2nc(-c3cccc(C(=O)O)c3)no2)c1 [Compound 20, 3-[5-(3-Methoxy-phenyl)-[1,2,4]oxadiazol-3-yl]-benzoic acid] | **** |
| O=C(O)c1cccc(-c2noc(-c3ccco3)n2)c1 [Compound 21, 3-(5-Furan-2-yl-[1,2,4]oxadiazol-3-yl)-benzoic acid] | **** |

| SMILES | Activity |
| --- | --- |
| CC(C)(C)c1nc(-c2cccc(C(=O)O)c2)no1 [Compound 22, 3-(5-tert-Butyl-[1,2,4]oxadiazol-3-yl)-benzoic acid] | * |
| O=C(O)c1cccc(-c2noc(-c3ccc4nonc4c3)n2)c1 [Compound 23, 3-(5-Benzo[1,2,5]oxadiazol-5-yl-[1,2,4]oxadiazol-3-yl)-benzoic acid] | **** |
| O=C(O)c1cccc(-c2noc(-c3ccc(CCl)cc3)n2)c1 [Compound 24, 3-[5-(4-Chloromethyl-phenyl)-[1,2,4]oxadiazol-3-yl]-benzoic acid] | ***** |
| CC(C)(C)c1ccc(-c2nc(-c3cccc(C(=O)O)c3)no2)cc1 [Compound 25, 3-[5-(4-tert-Butyl-phenyl)-[1,2,4]oxadiazol-3-yl]-benzoic acid] | ***** |
| CCCCc1nc(-c2cccc(C(=O)O)c2)no1 [Compound 26, 3-(5-Butyl-[1,2,4]oxadiazol-3-yl)-benzoic acid] | **** |
| O=C(O)c1cccc(-c2noc(C3CC3)n2)c1 [Compound 27, 3-(5-Cyclopropyl-[1,2,4]oxadiazol-3-yl)-benzoic acid] | **** |
| O=C(O)c1cccc(-c2noc(-c3ccccc3F)n2)c1 [Compound 28, 3-[5-(2-Fluoro-phenyl)-[1,2,4]oxadiazol-3-yl]-benzoic acid] | ***** |
| O=C(O)c1cccc(-c2noc(-c3cccs3)n2)c1 [Compound 29, 3-(5-Thiophen-2-yl-[1,2,4]oxadiazol-3-yl)-benzoic acid] | **** |
| C/C=C/c1nc(-c2cccc(C(=O)O)c2)no1 [Compound 30, 3-(5-Propenyl-[1,2,4]oxadiazol-3-yl)-benzoic acid] | **** |
| O=C(O)c1cccc(-c2noc(C3CCCC3)n2)c1 [Compound 31, 3-(5-Cyclopentyl-[1,2,4]oxadiazol-3-yl)-benzoic acid] | **** |
| O=C(O)c1cccc(-c2noc(Cc3cccs3)n2)c1 [Compound 32, 3-(5-Thiophen-2-ylmethyl-[1,2,4]oxadiazol-3-yl)-benzoic acid] | **** |
| O=C(O)c1cccc(-c2noc(Cc3ccc(Cl)cc3)n2)c1 [Compound 33, 3-[5-(4-Chloro-benzyl)-[1,2,4]oxadiazol-3-yl]-benzoic acid] | **** |
| O=C(O)c1cccc(-c2noc(COc3ccc(Cl)cc3)n2)c1 [Compound 34, 3-[5-(4-Chloro-phenoxymethyl)-[1,2,4]oxadiazol-3-yl]-benzoic acid] | **** |
| O=C(O)c1cccc(-c2noc(-c3ccccc3C(F)(F)F)n2)c1 [Compound 35, 3-[5-(2-Trifluoromethyl-phenyl)-[1,2,4]oxadiazol-3-yl]-benzoic acid] | **** |
| O=C(O)c1cccc(-c2noc(-c3c(F)cccc3F)n2)c1 [Compound 36, 3-[5-(2,6-Difluoro-phenyl)-[1,2,4]oxadiazol-3-yl]-benzoic acid] | **** |
| O=C(O)c1cccc(-c2noc(-c3cccc(F)c3)n2)c1 [Compound 37, 3-[5-(3-Fluoro-phenyl)-[1,2,4]oxadiazol-3-yl]-benzoic acid] | ***** |
| CCc1ccc(-c2nc(-c3cccc(C(=O)O)c3)no2)cc1 [Compound 38, 3-[5-(4-Ethyl-phenyl)-[1,2,4]oxadiazol-3-yl]-benzoic acid] | ***** |
| O=C(O)c1cccc(-c2noc(-c3ccc(F)c(F)c3)n2)c1 [Compound 39, 3-[5-(3,4-Difluoro-phenyl)-[1,2,4]oxadiazol-3-yl]-benzoic acid] | ***** |
| Cc1cccc(-c2nc(-c3cccc(C(=O)O)c3)no2)c1 [Compound 40, 3-(5-m-Tolyl-[1,2,4]oxadiazol-3-yl)-benzoic acid] | ***** |
| O=C(O)c1cccc(-c2noc(-c3ccc(-n4cccc4)cc3)n2)c1 [Compound 41, 3-[5-(4-Pyrrol-1-yl-phenyl)-[1,2,4]oxadiazol-3-yl]-benzoic acid] | **** |
| O=C(O)c1cccc(-c2noc(Cc3ccccc3)n2)c1 [Compound 42, 3-(5-Benzyl-[1,2,4]oxadiazol-3-yl)-benzoic acid] | *** |
